Read-outs that look alike come from different tables or passages of the source.
Key:
[1] = test system: papillary muscle; assay: Cardiac tropism: calcium antagonism on rabbit papillary muscle (inotropic effect of calcium chloride); settings: for cardiac anti-calcium activity / cardiac tropism (in words): cardiac test, summary of Table I; for PAPILLARY MUSCLE pA2 / PAPILLARY MUSCLE pD'2: rabbit papillary muscle
Experimental: (§1) In vitro, the calcium antagonism activity was investigated in accordance with the methods summarised below.
Investiqation of a cardiac tropism
A rabbit's papillary muscle was placed in a KREBS-HENSELEIT solution kept at 37° C. and was stimulated electrically at a frequency of 1.5 Hz (5 ms of pulse at 15 V).
The positive inotropic effect of calcium chloride was investigated by the method of cumulative dose-response curves.
The substances to be studied were added to the solution in which the muscle was kept, 15 minutes prior to determining the agonist curves.
(§2) The conventional parameters of molecular pharmacology are subsequently determined (pA2 for a competitive antagonism and pD'2 for a non-competitive anatagonism), using the technique of VAN ROSSUM [ARCH. INT. PHARMACODYN. THER. 143, 299-330 (1963)].

[2] = test system: isolated aorta; assay: Vascular tropism: anti-calcium effect on rabbit isolated aorta (contraction by calcium chloride); settings: for ISOLATED AORTA pA2 / ISOLATED AORTA pD'2: rabbit isolated aorta, K+ depolarised, 37° C., 15 min; for ISOLATED AORTA pA2: competitive antagonism vs calcium chloride; for ISOLATED AORTA pD'2: non-competitive antagonism vs calcium chloride; for vascular anti-calcium activity / vascular tropism (in words): vascular test, summary of Table I
Experimental: as §1
Investigation of a vascular tropism
A rabbit's isolated aorta, cut into spirals, was placed in a KREBS solution kept at 37° C., free from Ca^++ and enriched with K^+ ([…] of KCL/liter) for depolarisation.
The contracting effect of cumulative concentrations of calcium chloride was investigated and the anti-calcium effect of the compounds studied was evaluated 15 minutes after their addition to the solution in which the aorta was kept.
as §2

[3] = test system: anaesthetised dog; assay: Anti-angina activity: haemodynamic effects in the anaesthetised dog; assay type: in vivo; settings: 5 mg.kg^-1 intravenously; for anti-anginal activity (in words): summary of Table II; for change in vivo at 5 mg/kg: Canis lupus familiaris, iv
Experimental: In vivo, the anti-angina activity was investigated by measuring the haemodynamic effects in the anaesthetised dog, in accordance with the method summarised below.
The following parameters were recorded on the dog anaesthetised with chloralose (100 mg.kg^-1 administered intravenously):
pulse rate, by means of subcutaneous ECG electrodes connected to a BECKMAN cardiotachymeter (branch D II),
coronary arterial flow recorded by means of a STATHAM electromagnetic flowmeter and
antitachycardiac action (inhibition of the positive chronotropic effects of isoprenaline).
These parameters were recorded continuously on a BECKMAN dynograph and at the same time the duration of the action was measured.
The compounds of the invention are administered intravenously at a dose of 5 mg.kg^-1.

[4] = 37° C., 15 min preincubation, competitive antagonism vs calcium chloride
[5] = read-out: CORONARY FLOW Variation
[6] = inhibition of positive chronotropic effects of isoprenaline, read-out: ANTI-TACHYCARDIAC ACTION Variation
[7] = inhibition of positive chronotropic effects of isoprenaline

Cc1ccc(N(Cc2ccccc2)CC(COCC(C)C)N2CCCC2)cc1 (stereo not shown) [Compound 1]
cardiac anti-calcium activity / cardiac tropism (in words) [1]: more marked cardiac tropism | PAPILLARY MUSCLE pA2 [1, 4]: 4.30 ± 0.24 | PAPILLARY MUSCLE pD'2 ([1]; 37° C., 15 min preincubation, non-competitive antagonism vs calcium chloride): 3.81 ± 0.20 | ISOLATED AORTA pA2 [2]: 4.83 ± 0.28 | ISOLATED AORTA pD'2 [2]: 5.08 ± 0.27

CC(C)COCC(CN(Cc1ccccc1)c1ccc(Cl)c(Cl)c1)N1CCCC1 (stereo not shown) [Compound 2]
CORONARY FLOW Duration [3]: 10 min | PULSE RATE Duration [3]: > 45 min | anti-anginal activity (in words) [3]: most valuable anti-anginal activity | change in vivo at 5 mg/kg [3, 5]: 39% | change in vivo at 5 mg/kg ([3]; read-out: PULSE RATE Variation): -11% | change in vivo at 5 mg/kg [3, 6]: -51% | ANTI-TACHYCARDIAC ACTION Duration [3, 7]: 15 min

COc1ccc(N(Cc2ccccc2)CC(COCC(C)C)N2CCCC2)cc1 (stereo not shown) [Compound 3]
PAPILLARY MUSCLE pD'2 ([1]; at 10^-4 M, 15 min): 4.5 | cardiac anti-calcium activity / cardiac tropism (in words) [1]: more marked cardiac tropism | PAPILLARY MUSCLE pA2 [1, 4]: 4.87 ± 0.40 | ISOLATED AORTA pA2 [2]: 4.70 ± 0.38 | ISOLATED AORTA pD'2 [2]: 4.00 ± 0.24 | CORONARY FLOW Duration [3]: 20 min | PULSE RATE Duration [3]: > 45 min | anti-anginal activity (in words) [3]: most valuable anti-anginal activity | change in vivo at 5 mg/kg [3, 5]: 196% | change in vivo at 5 mg/kg ([3]; read-out: PULSE RATE Variation): -24% | change in vivo at 5 mg/kg [3, 6]: -63% | ANTI-TACHYCARDIAC ACTION Duration [3, 7]: 30 min

CC(C)COCC(CN(Cc1ccccc1)c1ccc(Cl)cc1)N1CCCC1 (stereo not shown) [Compound 4]
CORONARY FLOW Duration [3]: 3 min | PULSE RATE Duration [3]: > 45 min | change in vivo at 5 mg/kg [3, 5]: 32% | change in vivo at 5 mg/kg ([3]; read-out: PULSE RATE Variation): -27% | change in vivo at 5 mg/kg [3, 6]: -60% | ANTI-TACHYCARDIAC ACTION Duration [3, 7]: > 45 min

CC(C)COCC(CN(Cc1ccccc1)c1cccc(Cl)c1)N1CCCC1 (stereo not shown) [Compound 5, 2-(N-pyrrolidino)-3-isobutoxy-N-(3-chloro)-phenyl-N-benzyl-propylamine]
PAPILLARY MUSCLE pA2 ([1]; at 10^-4 M): Inactive | ISOLATED AORTA pA2 [2]: 4.83 ± 0.27 | ISOLATED AORTA pD'2 [2]: 4.71 ± 0.20 | CORONARY FLOW Duration [3]: 15 min | PULSE RATE Duration [3]: > 45 min | anti-anginal activity (in words) [3]: most valuable anti-anginal activity | change in vivo at 5 mg/kg [3, 5]: 98% | change in vivo at 5 mg/kg ([3]; read-out: PULSE RATE Variation): -20% | change in vivo at 5 mg/kg [3, 6]: -45% | ANTI-TACHYCARDIAC ACTION Duration [3, 7]: 15 min

CC(C)COCC(CN(Cc1ccccc1)c1cccc(C(F)(F)F)c1)N1CCCC1 (stereo not shown) [Compound 6]
PAPILLARY MUSCLE pA2 ([1]; at 10^-4 M, 15 min): 3.41 | ISOLATED AORTA pA2 [2]: 5.19 ± 0.37 | ISOLATED AORTA pD'2 [2]: 3.73 ± 0.50 | vascular anti-calcium activity / vascular tropism (in words) [2]: predominantly vascular tropism | CORONARY FLOW Duration [3]: 1 min | PULSE RATE Duration [3]: > 45 min | change in vivo at 5 mg/kg [3, 5]: 20% | change in vivo at 5 mg/kg ([3]; read-out: PULSE RATE Variation): -32% | change in vivo at 5 mg/kg [3, 6]: -64% | ANTI-TACHYCARDIAC ACTION Duration [3, 7]: > 45 min

CC(C)COCC(CN(Cc1ccccc1)c1cc(Cl)cc(Cl)c1)N1CCCC1 (stereo not shown) [Compound 7]
PAPILLARY MUSCLE pA2 ([1]; at 10^-4 M): Inactive | ISOLATED AORTA pA2 [2]: 4.70 ±0.60 | ISOLATED AORTA pD'2 [2]: 3.85 ± 0.43 | CORONARY FLOW Duration [3]: 5 min | PULSE RATE Duration [3]: 45 min | change in vivo at 5 mg/kg [3, 5]: 31% | change in vivo at 5 mg/kg ([3]; read-out: PULSE RATE Variation): -23% | change in vivo at 5 mg/kg [3, 6]: -54% | ANTI-TACHYCARDIAC ACTION Duration [3, 7]: 45 min

Cc1cccc(C)c1N(Cc1ccccc1)CC(COCC(C)C)N1CCCC1 (stereo not shown) [Compound 8]
PAPILLARY MUSCLE pD'2 ([1]; at 10^-4 M, 15 min): 3.69 | PAPILLARY MUSCLE pA2 ([1]; at 10^-5 M, 15 min): 4.67 | cardiac anti-calcium activity / cardiac tropism (in words) [1]: noteworthy | ISOLATED AORTA pA2 [2]: 5.21 ± 0.65 | ISOLATED AORTA pD'2 [2]: 4.87 ± 0.48 | vascular anti-calcium activity / vascular tropism (in words) [2]: noteworthy | CORONARY FLOW Duration [3]: 15 min | PULSE RATE Duration [3]: 35 min | anti-anginal activity (in words) [3]: most valuable anti-anginal activity | change in vivo at 5 mg/kg [3, 5]: 85% | change in vivo at 5 mg/kg ([3]; read-out: PULSE RATE Variation): -36% | change in vivo at 5 mg/kg [3, 6]: -28% | ANTI-TACHYCARDIAC ACTION Duration [3, 7]: 15 min

CC(C)COCC(CN(Cc1ccccc1)c1ccc2c(c1)OCO2)N1CCCC1 (stereo not shown) [Compound 11, 2-(N-pyrrolidino)-3-isobutoxy-N-(3,4-methylenedioxy)-phenyl-N-benzyl-propylamine]
PAPILLARY MUSCLE pD'2 ([1]; at 10^-4 M): total | cardiac anti-calcium activity / cardiac tropism (in words) [1]: about the highest activity | PAPILLARY MUSCLE pA2 [1, 4]: 5.44 ± 0.26 | ISOLATED AORTA pA2 [2]: 4.94 ± 0.43 | ISOLATED AORTA pD'2 [2]: 4.80 ± 0.05 | vascular anti-calcium activity / vascular tropism (in words) [2]: about the highest activity | CORONARY FLOW Duration [3]: 20 min | PULSE RATE Duration [3]: > 45 min | anti-anginal activity (in words) [3]: most valuable anti-anginal activity | change in vivo at 5 mg/kg [3, 5]: 116% | change in vivo at 5 mg/kg ([3]; read-out: PULSE RATE Variation): -50% | change in vivo at 5 mg/kg [3, 6]: -47% | ANTI-TACHYCARDIAC ACTION Duration [3, 7]: 45 min
